Assay results from paper PMC2833271 (Neuropsychopharmacology : official publication of the …, 2009).
“Also recorded” adds a separate entry of the source. Like-named read-outs stand apart in the source and are kept apart here.

What was measured:
[1] = biological target: T1, brain MAO-A (Homo sapiens, UniProt P21397); assay: PET imaging of [11C]clorgyline binding; format: in vivo
T1 sequence (P21397 1-527): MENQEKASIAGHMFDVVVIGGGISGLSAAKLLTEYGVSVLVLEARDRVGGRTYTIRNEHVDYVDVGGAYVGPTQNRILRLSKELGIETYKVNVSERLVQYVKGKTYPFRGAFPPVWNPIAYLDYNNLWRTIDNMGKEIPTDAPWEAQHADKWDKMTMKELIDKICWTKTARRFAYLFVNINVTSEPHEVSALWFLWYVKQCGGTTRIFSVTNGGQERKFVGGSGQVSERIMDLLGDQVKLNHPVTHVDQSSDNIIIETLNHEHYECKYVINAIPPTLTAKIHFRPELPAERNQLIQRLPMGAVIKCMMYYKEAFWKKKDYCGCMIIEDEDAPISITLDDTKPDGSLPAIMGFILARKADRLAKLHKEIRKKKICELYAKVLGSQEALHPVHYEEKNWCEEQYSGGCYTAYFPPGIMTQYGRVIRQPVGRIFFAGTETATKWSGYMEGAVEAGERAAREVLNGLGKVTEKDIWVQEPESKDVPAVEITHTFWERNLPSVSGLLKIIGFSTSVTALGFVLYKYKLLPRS

[2] = Plasma CX157 concentration and pharmacokinetics; format: in vivo, human; settings: for concentration at 2 h / concentration at 5 h / concentration at 12 h / concentration at 8 h: oral; for Plasma CX157: single subject value
[3] = biological target: T1, brain MAO-A; assay: Emax model of brain MAO-A inhibition vs plasma CX157 concentration; format: in vivo
[4] = Adverse events in study subjects; format: in vivo, human; settings: 15 normal men, oral CX157 20-80 mg
[5] = test system: MAO-A; settings: in human brain; ref data on file, CeNeRx Biopharma, Cary, NC; cited from earlier work
[6] = biological target: T1, brain MAO-A; settings: [11C]harmine PET; ref Bergström et al, 1997; cited from earlier work

O=S1(=O)c2ccc(F)cc2Oc2cc(OCC(F)(F)F)ccc21 [CX157, 3-fluoro-7-(2,2,2-trifluoroethoxy)phenoxathiin-10,10-dioxide]
inhibition of MAO-A ([1]; 40 mg CX157, first two subjects): ~ 60%
inhibition of [11C]clorgyline binding to brain MAO-A ([1]; 60 and 80 mg oral doses, 2 h after administration): 47–72%
recovery of brain MAO-A activity ([1]; 24 h post drug (single dose, 40 mg)): recovered completely; also recorded: Complete recovery to baseline values
inhibition at 40 mg ([1]; read-out: % MAO-A inhibition (inhibition of [11C]clorgyline binding, λk3), multi-dose 40 mg BID 7 days, n = 3, 12 h post dose): 23.1 ± 3.7%
inhibition at 40 mg ([1]; read-out: % MAO-A inhibition (inhibition of [11C]clorgyline binding, λk3), multi-dose 40 mg BID, 10 h, single subject value): 27.3%
% MAO-A inhibition (inhibition of [11C]clorgyline binding, λk3) ([1]; single dose 20 mg, n = 2, 2 h after CX157): 18.5 ± 10.6%
% MAO-A inhibition (inhibition of [11C]clorgyline binding, λk3) ([1]; single dose 20 mg, n = 2, 5 h after CX157): 18.8 ± 6.7%
% MAO-A inhibition (inhibition of [11C]clorgyline binding, λk3) ([1]; single dose 20 mg, n = 2, 12 h after CX157): 12.4 ± 10.8%
% MAO-A inhibition (inhibition of [11C]clorgyline binding, λk3) ([1]; single dose 40 mg, n = 3, 2 h after CX157): 54.7 ± 8.9%
% MAO-A inhibition (inhibition of [11C]clorgyline binding, λk3) ([1]; single dose 40 mg, n = 3, 12 h after CX157): 6.8 ± 14.6%
% MAO-A inhibition (inhibition of [11C]clorgyline binding, λk3) ([1]; single dose 40 mg, n = 3, 24 h after CX157): −1.8 ± 0.7%
% MAO-A inhibition (inhibition of [11C]clorgyline binding, λk3) ([1]; single dose 40 mg, 5 h after CX157, single subject value): 34.5%
% MAO-A inhibition (inhibition of [11C]clorgyline binding, λk3) ([1]; single dose 40 mg, 8 h after CX157, single subject value): 6.5%
% MAO-A inhibition (inhibition of [11C]clorgyline binding, λk3) ([1]; single dose 60 mg, n = 3, 5 h after CX157): 31.6 ± 27.4%
% MAO-A inhibition (inhibition of [11C]clorgyline binding, λk3) ([1]; single dose 60 mg, n = 3, 8 h after CX157): 23.4 ± 30.0%
% MAO-A inhibition (inhibition of [11C]clorgyline binding, λk3) ([1]; single dose 60 mg, n = 3, 12 h after CX157): 17.6 ± 17.9%
% MAO-A inhibition (inhibition of [11C]clorgyline binding, λk3) ([1]; single dose 80 mg, n = 4, 2 h after CX157): 72.3 ± 8.7%
% MAO-A inhibition (inhibition of [11C]clorgyline binding, λk3) ([1]; single dose 80 mg, n = 4, 5 h after CX157): 48.6 ± 12.1%
% MAO-A inhibition (inhibition of [11C]clorgyline binding, λk3) ([1]; single dose 80 mg, n = 4, 8 h after CX157): 30.4 ± 8.9%
% MAO-A inhibition (inhibition of [11C]clorgyline binding, λk3) ([1]; single dose 80 mg, 12 h after CX157, single subject value): 43.1%
peak inhibition of [11C]clorgyline binding ([1]; single doses, all dose groups except 20 mg, 2-h time point): 47–72%
concentration at 2 h ([2]; male, human, plasma, 20 mg, Average plasma CX157, single dose 20 mg, n = 2, 2 h): 18.5 ± 3.3 ng/mL
concentration at 5 h ([2]; male, human, plasma, 20 mg, Average plasma CX157, single dose 20 mg, n = 2, 5 h): 18.8 ± 1.1 ng/mL
concentration at 12 h ([2]; male, human, plasma, 20 mg, Average plasma CX157, single dose 20 mg, n = 2, 12 h): 12.4 ± 0.7 ng/mL
concentration at 2 h ([2]; male, human, plasma, 40 mg, Average plasma CX157, multi-dose 40 mg BID, n = 3, 2 h): 48.3 ± 11.3 ng/mL
concentration at 5 h ([2]; male, human, plasma, 40 mg, Average plasma CX157, multi-dose 40 mg BID, n = 3, 5 h): 34.1 ± 5.8 ng/mL
concentration at 8 h ([2]; male, human, plasma, 40 mg, Average plasma CX157, multi-dose 40 mg BID, n = 3, 8 h): 32.2 ± 4.4 ng/mL
concentration at 12 h ([2]; male, human, plasma, 40 mg, Average plasma CX157, multi-dose 40 mg BID, n = 3, 12 h): 23.1 ± 1.4 ng/mL
concentration at 2 h ([2]; male, human, plasma, 40 mg, Average plasma CX157, single dose 40 mg, n = 3, 2 h): 54.7 ± 18.5 ng/mL
concentration at 12 h ([2]; male, human, plasma, 40 mg, Average plasma CX157, single dose 40 mg, n = 3, 12 h): 6.8 ± 1.5 ng/mL
concentration at 2 h ([2]; male, human, plasma, 60 mg, Average plasma CX157, single dose 60 mg, n = 3, 2 h): 46.8 ± 84.4 ng/mL
concentration at 5 h ([2]; male, human, plasma, 60 mg, Average plasma CX157, single dose 60 mg, n = 3, 5 h): 31.6 ± 37.4 ng/mL
concentration at 8 h ([2]; male, human, plasma, 60 mg, Average plasma CX157, single dose 60 mg, n = 3, 8 h): 23.4 ± 8 ng/mL
concentration at 12 h ([2]; male, human, plasma, 60 mg, Average plasma CX157, single dose 60 mg, n = 3, 12 h): 17.6 ± 6.6 ng/mL
concentration at 2 h ([2]; male, human, plasma, 80 mg, Average plasma CX157, single dose 80 mg, n = 4, 2 h): 72.3 ± 58.8 ng/mL
concentration at 5 h ([2]; male, human, plasma, 80 mg, Average plasma CX157, single dose 80 mg, n = 4, 5 h): 48.6 ± 25 ng/mL
concentration at 8 h ([2]; male, human, plasma, 80 mg, Average plasma CX157, single dose 80 mg, n = 4, 8 h): 30.4 ± 5.2 ng/mL
half-life ([2]; male, human, plasma, po): 6 ± 3.4 h
Plasma CX157 range ([2]; multi-dose 40 mg BID, n = 3, 2 h): 24.5 to 45 ng/mL
Plasma CX157 range ([2]; multi-dose 40 mg BID, n = 3, 5 h): 13.1 to 24.7 ng/mL
Plasma CX157 range ([2]; multi-dose 40 mg BID, n = 3, 8 h): 10.8 to 19.5 ng/mL
Plasma CX157 range ([2]; multi-dose 40 mg BID, n = 3, 12 h): 9 to 11 ng/mL
Plasma CX157 ([2]; multi-dose 40 mg BID, 10 h): 6.9 ng/mL
Plasma CX157 range ([2]; single dose 20 mg, n = 2, 2 h): 3.8 to 8.1 ng/mL
Plasma CX157 range ([2]; single dose 20 mg, n = 2, 5 h): 1.9 to 3.4 ng/mL
Plasma CX157 range ([2]; single dose 20 mg, n = 2, 12 h): 0.6 to 1.6 ng/mL
Plasma CX157 range ([2]; single dose 40 mg, n = 3, 2 h): 18.4 to 55.1 ng/mL
Plasma CX157 range ([2]; single dose 40 mg, n = 3, 12 h): 0.9 to 3.9 ng/mL
Average plasma CX157 ([2]; single dose 40 mg, n = 3, 24 h): 2.8 ± 1.3 ng/mL
Plasma CX157 range ([2]; single dose 40 mg, n = 3, 24 h): 1.8 to 3.7 ng/mL
Plasma CX157 ([2]; single dose 40 mg, 5 h): 8.4 ng/mL
Plasma CX157 ([2]; single dose 40 mg, 8 h): 1.8 ng/mL
Plasma CX157 range ([2]; single dose 60 mg, n = 3, 2 h): 7.6 to 158 ng/mL
Plasma CX157 range ([2]; single dose 60 mg, n = 3, 5 h): 3.6 to 67.3 ng/mL
Plasma CX157 range ([2]; single dose 60 mg, n = 3, 8 h): 3.4 to 14.7 ng/mL
Plasma CX157 range ([2]; single dose 60 mg, n = 3, 12 h): 1.8 to 11.1 ng/mL
Plasma CX157 range ([2]; single dose 80 mg, n = 4, 2 h): 70.7 to 183 ng/mL
Plasma CX157 range ([2]; single dose 80 mg, n = 4, 5 h): 13.5 to 70.2 ng/mL
Plasma CX157 range ([2]; single dose 80 mg, n = 4, 8 h): 5.7 to 15.4 ng/mL
Plasma CX157 ([2]; single dose 80 mg, 12 h): 16.6 ng/mL
EC50 [3]: 55.4 nM
n (exponent of sigmoid Emax model) ([3]; Emax model fit, all subjects, doses and time points): 1.0
Emax ([3]; read-out: Emax (maximum inhibiting response)): 80.7%
overall incidence of AEs [4]: 13.3%
serious adverse events or deaths [4]: No serious adverse events (AEs) or deaths occurred
MAO-A inhibiting activity [5]: 3.3 nM

CCS(=O)(=O)Oc1ccc2c(C)c(C)c(=O)oc2c1 [esuprone]
correlation between plasma drug levels and brain MAO-A inhibition [6]: no correlation observed
